Values joined by “and” are separate entries in the source; they are usually repeats but may differ in a detail not shown here. Identical values can stand only once. Like-named read-outs stand apart in the source and are kept apart here.
Tests used:
[1] = cited from earlier work
[2] = Catalytic Activity Test (Dielectric Polarization Analyzer SubCASE HT)
Procedure: Comparative catalytic activity of selected tin-containing catalysts was determined with the use of Dielectric Polarization Analyzer SubCASE HT (Format Messtechnik GmbH) that converts the dielectric conductivity signal to Pot Life and Cure Time (among others) of curing polymer systems. Pot Life was determined by the instrument as time between the mixing the reactants and beginning of the polymerization process at 10% reduction in dielectrical properties from the initial point. Cure Time is calculated as the time between the maximum cure rate point and the point at which the maximum rate is slowed down by 25%. The polyurethane test formulation used for screening catalytic activity of the selected tin-containing catalysts with the use of SubCASE HT is shown in Table 1.
The selected catalysts were tested at loadings of the same tin content. The following catalysts were tested for comparative catalytic activity: stannous di-2-ethylhexanoate, stannous dineodecanoate, stannous diricinoleate, dimethyltin dioleate and dimethyltin dineodecanoate. A catalyst was added to the polyol and mixed at 400 rpm until thoroughly dispersed. IPDI was then added to the polyol/catalyst mixture and mixed for 20 seconds at 400 rpm before introducing the mixture into the SubCASE HT instrument and starting the kinetics measurements. The instrument temperature was set to 30° C. Results of the comparative catalytic activity test for Pot Life and Cure Time of the selected tin-containing catalysts are in Table 2.

[3] = for Cream time / % Elongation / Density / Permeability / Resiliency / Tensile: catalyst 0.23 pphp
Procedure: In addition to the above Examples carried out in the screening polyurethane formulation, actual flexible polyurethane foam specimens were prepared and tested for their performance characteristics.
The flexible polyurethane foam formulation is in Table 4.
Testing results of the prepared foams are in Table 5.

[4] = reproductive toxicity / CMR status, current or as in Comments
[5] = same amount of tin (0.029 g), 30° C.

| Compound | CMR classification ([1]; current) | CMR classification [1, 4] | CMR Classification (mutagen) ([1]; mutagenicity) | Cure Time [2, 5] [s] | Cure Time-Pot Life [2, 5] [s] | Pot Life [2, 5] [s] | Cure Time ([2]; same tin amount) [s] | Pot Life ([2]; same tin amount) | Cream time [3] [s] | elongation ([3]; foam) [%] | increase of elongation compared to Example Control 1 and Example Control 2 ([3]; foam) | % Elongation ([3]; foam) [%] | Density ([3]; foam) [lbs/ft3] | Permeability ([3]; foam) [scfm] | Resiliency ([3]; foam) [%] | Tensile ([3]; foam) [psi] |
| --- | --- | --- | --- | --- | --- | --- | --- | --- | --- | --- | --- | --- | --- | --- | --- | --- |
| CC(=O)[O-].CC(=O)[O-].[CH3][Sn+2][CH3] [Dimethyltin diacetate] | reprotoxicants of category 2 | Reprotox. of Cat. 2 |  |  |  |  |  |  |  |  |  |  |  |  |  |  |
| Dibutyltin dilaurate | reprotoxicants of category 1B | Reprotox. of Cat. 1B | Mutagen of Cat. 2 |  |  |  |  |  |  |  |  |  |  |  |  |  |
| Dimethyltin dineodecanoate | reprotoxicants of category 2 | Reprotox. of Cat. 2 |  | 695 | 321 | 374 | 695 | 374 s | 18 | 107 | about 31% | 107 | 1.37 | 0.3 | 20 | 15 |
| Dimethyltin dioleate | reprotoxicants of category 2 | Reprotox. of Cat. 2 |  | 1135 | 533 | 602 |  | 602 s |  |  |  |  |  |  |  |  |
| Dimethyltin diricinoleate | reprotoxicants of category 2 | Reprotox. of Cat. 2 |  | 928 | 457 | 471 | 928 | 471 s | 17 |  |  | 93 | 1.39 | 4.4 | 35 | 14 |
| Dioctyltin dilaurate | reprotoxicants of category 1B | Reprotox. of Cat. 1B |  |  |  |  |  |  |  |  |  |  |  |  |  |  |
| Stannous di(2-ethylhexanoate) |  |  |  | 420 | 109 | 311 |  | 311 s | 17 |  |  |  |  |  |  |  |
| Stannous dineodecanoate | non-CMR | Not CMR |  | 741 | 337 | 404 | 741 | 404 s and 471 s | 15 | 97 |  | 97 | 1.32 | 0.6 | 28 | 14 |
| Stannous diricinoleate | non-CMR | Not CMR |  | 895 | 335 | 560 | 895 | 560 s |  |  |  |  |  |  |  |  |
